Measured values from US20250288599A1, “PHARMACEUTICAL COMPOSITIONS AND METHODS FOR TREATING OSTEOARTHRITIS” (INSIGNIA PHARMACEUTICALS, LLC, priority 2024, published 2025).

Columns and labels:
[1] = test system: PGE2 release from normal human chondrocytes; assay: IL-1β-induced PGE2 release from normal human chondrocyte monolayers, 48 h, competitive EIA; assay type: cell-based
Experimental: Mechanical stress and inflammation are thought to sustain catabolic cycles of extracellular matrix deterioration during osteoarthritis. In particular, PGE2 correlates with increased protease production and discomfort or pain in osteoarthritis.
After 48-hours, PGE2 release was evaluated by competitive EIA, and relative potency was calculated versus dose responses of Dex alone.
After 48 hours, PGE2 release was evaluated by competitive enzyme immunoassay (EIA), and relative potency was calculated versus Dex alone.
Lac is commonly thought to be simply an end-product of anaerobic glycolysis; however, it may also have immunomodulatory effects and promote protein modifications that alter gene expression. The goal of this experiment was to determine how Lac supplementation affects early-phase, inflammatory, and late-stage redifferentiation in chondrocyte models. To establish how Lac may influence inflammation early in osteoarthritis, monolayers of normal human chondrocytes were exposed to Lac dose responses of up to 100 millimolar, concurrently with 0.5 nanograms per milliliter IL-1β for 48 hours. The release of PGE2 was then quantified using competitive EIA. To investigate how Lac affects transcriptional programs in dedifferentiated osteoarthritic chondrocytes, monolayer cultures and micromass pellets were treated for 14 days with 100 millimolar final concentrations of Lac, with and without 10 nanograms per milliliter transforming growth factor beta 3 (TGF-β3). Total RNA was then isolated, and relative expression of SOX9 or Col2a1 was calculated using qRT-PCR, normalized to GAPDH.

[2] = test system: IL-1β release from human THP1 macrophages; assay: Two-hit (LPS then ATP) inflammasome activation model, IL-1β release from THP1 macrophages; assay type: cell-based; conditions: for IC50: Homo sapiens
Source text: The proinflammatory cytokine, IL-1β, is released from cells upon activation of the inflammasome, a multi-protein proinflammatory complex. A two-hit model of inflammasome activation in THP1 macrophages was developed that entails an overnight stimulation with LPS followed by a second proinflammatory stimulus, extracellular ATP, which drives inflammasome assembly and subsequent IL-1β release from the cells into the media.

[3] = test system: MMP13 expression in primary human chondrocytes from an osteoarthritic patient; assay: MMP13 relative expression in primary human osteoarthritic chondrocytes treated with HA and/or Dex; assay type: cell-based; conditions: 0.1% HA, 0.1 μM Dex
Experimental: Without being bound by theory, it is hypothesized that HA treatment in combination with Dex could provide a therapeutic strategy that promotes HA's beneficial effects while maintaining Dex's anti-inflammatory response. To investigate this, primary human chondrocytes from an osteoarthritic patient were treated with 0.1% HA and/or 0.1 μM Dex in monolayer culture or micromass pellets for 14 to 28 days. Total mRNA was then extracted, and qRTPCR was performed with primer pairs specific for MMP13 and the housekeeping gene GAPDH. Relative expression was then calculated versus controls, with each sample normalized to GAPDH amplification.

[4] = test system: SOX9 expression in human osteoarthritic chondrocytes; assay: SOX9 relative expression in high and low passage osteoarthritic chondrocytes, 7, 14 or 28 days; assay type: cell-based
Source text: Media was exchanged bi-weekly. […] SOX9 is a transcription factor vital to the development and maintenance of cartilage and is required for chondrogenesis. SOX9 promotes chondrocyte survival and transcriptionally activates cartilage-specific genes. SOX9 is repressed in hypertrophic chondrocytes (i.e. terminally differentiated osteoblast-like cells).

[5] = test system: Col2a1 expression in dedifferentiated osteoarthritic chondrocytes; assay: Col2a1 relative expression in high passage osteoarthritic chondrocyte monolayer model with TGF-β; assay type: cell-based, human; conditions: 14 days in culture with TGF-β; 28 mM Lac, 100 mm LA
Experimental: (§1) These compounds were tested in a high passage osteoarthritic chondrocyte monolayer model, alone or in combination with other agents, for both transcriptional regulation of standard markers and IL-1β-induced PGE2 production.

[6] = test system: SOX9 expression in dedifferentiated osteoarthritic chondrocytes; assay: SOX9 relative expression in high passage osteoarthritic chondrocyte monolayer model with TGF-β; assay type: cell-based, human; conditions: 14 days in culture with TGF-β; 28 mM Lac, 100 mm LA
Experimental: as §1

[7] = test system: PGE2 release from dedifferentiated osteoarthritic chondrocytes; assay: IL-1β-induced PGE2 release in high passage osteoarthritic chondrocyte monolayer model, 24 h; assay type: cell-based; conditions: Homo sapiens
Experimental: as §1

[8] = test system: PGE2 release from passage 3 normal human chondrocytes; assay: Rescue versus preincubation regimens, IL-1β-induced PGE2 release from passage 3 normal human chondrocytes; assay type: cell-based; conditions: Homo sapiens, Chondrocyte, 25 μM Dec, singlet
Source text: The mechanisms of action (MOA) of a drug often dictate the timing and delivery of treatment regimens. While the MOA of compounds disclosed herein continue to be elucidated, experiments were designed to help establish how the drugs should be administered. Furthermore, these experiments will also help with hypothesis generation for subsequent MOA investigations. A low-passage chondrocyte monolayer model was utilized to establish how changes in drug delivery impact the inhibition of IL-1β-induced PGE2 release seen following treatment with the compounds under investigation.
Passage 3 normal human chondrocytes were seeded into tissue culture plates and then tested for compound activity by pre-treating for 24 hours, administering at the same time as activation, or by adding to cells following an overnight activation with IL-1β. Treatment groups included medium control, 25 μM decanoate (Dec), 28 mM D/L sodium Lac, and 10 μM LA. PGE2 release was then evaluated 24- or 96-hours post-activation with percent inhibitions calculated versus plate- and block-matched controls. The experiments were performed in singlet and are intended to be repeated to establish variance.

[9] = test system: PGE2 release from normal human chondrocytes; assay: IL-1β-induced PGE2 release from normal human chondrocytes, 24 h, DA vs decanoate working solutions; assay type: cell-based; conditions: for inhibition at 25 µM: Homo sapiens, Chondrocyte, 25 micromolar
Experimental: The activity of DA working solutions prepared in either saline or lactated ringer's (LR) isotonic solutions was assessed. […] In addition, concentrated decanoate working solutions in saline or LR were prepared and added to the cultures at a final concentration of 25 micromolar. PGE2 release was then compared to matching points on the DA or decanoate medium as well as saline and LR controls.

[10] = test system: PGE2 in primary human osteoarthritic synoviocytes; assay: Early, pretreatment and intracellular vs secreted PGE2 in IL-1β-stimulated human osteoarthritic synoviocytes; assay type: cell-based; conditions: 200 nanomolar DA or 500 nanograms/milliliter IL-1RA; IL-1β 1 nanogram/milliliter
Experimental: The concentrations in FIG. 31A were measured at hour three.
Cells were also treated with IL-IRA which inhibits IL-1β by binding the cell-surface […] and inhibiting its dimerization with the IL-1 receptor (IL-1R), effectively blocking IL-1β signaling.
FIG. 33 illustrates two bar graphs that depict the concentrations of PGE2 inside of the cell versus PGE2 that was secreted into the cell culture media. Specifically, the bar graph labeled “Intracellular” illustrates the concentrations of PGE2 inside of the cell and the bar graph labeled “Supernatent” illustrates the concentration of PGE2 that was secreted into the cell culture media. Synoviocytes were stimulated with IL-1β for 6 hours and then cell culture media harvested separately along with collecting cell lysates. […] To test this, the PGE2 concentrations inside of the cells and in the cell culture media were measured to compare them directly to each other.

[11] = test system: MMP13 expression in human osteoarthritic chondrocytes; assay: MMP13 relative expression in high and low passage osteoarthritic chondrocytes; assay type: cell-based; conditions: low passage osteoarthritic chondrocytes; 7, 14, 28 days
[12] = 14-day micromass pellet culture
[13] = high passage, dedifferentiated osteoarthritic chondrocytes with TGF-β3, 14 days
[14] = 24 h, rescue (added after overnight IL-1β activation), 24-hour harvest, 28 mM Lac, 10 μM LA

In the case of `C[C@@H]1C[C@H]2[C@@H]3CCC4=CC(=O)C=C[C@]4(C)[C@@]3(F)[C@@H](O)C[C@]2(C)[C@@]1(O)C(=O)CO` [Dex, dexamethasone, reference compound], the inhibition at 0.01 µM ([1]; Homo sapiens, Chondrocyte, Dex 10 nanomolar final, IL-1β 500 pg/mL, 48 h) is reported as 100%, the “concentration at which statistical significance of PGE2 suppression was observed” value ([1]; IL-1β 48 h) is reported as 100 picomolar and the “increased Dex potency by 100 micromolar DA” value [2] is reported as 1.969 ×. The IC50 ([2]; THP-1, Dex phosphate alone, 1 picomolar to 10 micromolar) was 0.046 µM, the IC50 ([2]; THP-1, Dex with addition of 100 micromolar DA) was 0.0234 µM and the “Observed Relative expression of MMP13” value [3, 12] was −38.6 fold. For the same molecule, the “Observed Relative expression of MMP13” value ([3]; 28-day monolayer culture) was −3.6 fold.
For `O=C(O)CCCCC1CCSS1` (stereo not drawn) [LA, α-lipoic acid], the SOX9 expression [4, 13] was “increased SOX9 transcription”, the “increase in Col2a1 compared to controls” value [5] was 218 fold and the “increase in SOX9 transcription” value [6] was 4 fold. For the same molecule, the inhibition at 1 µM ([7]; LA 1 μM final) was 33%, the inhibition at 10 µM ([7]; LA 10 μM final) was 44% and the inhibition at 100 µM ([7]; LA 100 μM final) was 93%. For the same molecule, the inhibition at 10 µM [8, 14] was 85%.
With `CCCCCCCCCC(=O)[O-].[Na+]` [Dec, sodium decanoate] the “relative potency of decanoate as compared to DA” value ([9]; 95 percent confidence interval of 0.80-1.06) was 0.92, the inhibition at 25 µM ([9]; prepared in LR) was 65.2% and the inhibition at 25 µM ([9]; prepared in medium) was 62.3%. For the same molecule, the inhibition at 25 µM ([9]; prepared in saline) was 63.2%, the “increase in potency of sodium decanoate by 25 nanomolar Dex” value [2] was 4.6 × and the IC50 ([2]; THP-1, repeated experiments comparing DA to sodium decanoate) was 146 µM. For the same molecule, the IC50 ([2]; THP-1, sodium decanoate with addition of 25 nanomolar Dex) was 31.5 µM, the inhibition at 25 µM ([8]; 24 h, added at the same time as IL-1β, 24-hour harvest) was 53% and the inhibition at 25 µM [8, 14] was 72%. The inhibition at 25 µM ([8]; 96 h, added at the same time as IL-1β, 96-hour harvest) was 76%, the inhibition at 25 µM ([8]; 96 h, rescue, 96-hour harvest, 28 mM Lac, 10 μM LA) was 57% and the inhibition at 25 µM ([8]; pre-incubation 24 hours before IL-1β, 24-hour harvest, 28 mM Lac, 10 μM LA) was 41%. For the same molecule, the inhibition at 25 µM ([8]; pre-incubation, 96-hour harvest) was 75%.
In the case of hyaluronic acid [HA], the “Observed Relative expression of MMP13” value [3, 12] is reported as −1.6 fold and the “Observed Relative expression of MMP13” value ([3]; 28-day monolayer culture) is reported as 1.0 fold.
“IL-1RA: IL-1 Receptor Antagonist, blocks IL-1β signaling” was tested, and the “PGE2 release after pretreatment (5 minutes, 1 hour, or 2 hours) then IL-1β 10 minutes or 1 hour” value [10] was “consistently higher than PGE2 levels in DA treated cells”.
In the case of `C[C@@H]1C[C@H]2[C@@H]3CCC4=CC(=O)C=C[C@]4(C)[C@@]3(F)[C@@H](O)C[C@]2(C)[C@@]1(O)C(=O)COP(=O)(O)O` [Dxp, dexamethasone phosphate, reference compound], the SOX9 expression [4, 13] is reported as “decreased expression of SOX9”, the SOX9 expression ([4]; low passage osteoarthritic chondrocytes, 7, 14, 28 days) is reported as “temporal decrease in expression of SOX9” and the MMP13 transcription [11] is reported as “reduce MMP13 transcription”.
